Assay results from US8415469B2, “Compounds and methods for kinase modulation, and indications therefor” (Plexxikon Inc., priority 2005, dated 2013).

Tests used:
Type in all cases: biochemical
Jak3 = molecular target: T1, Jak3 (Homo sapiens, UniProt P52333); test: AlphaScreen kinase assay, Jak3; conditions: read-out: IC50, activity toward kinase Jak3
T1 sequence (P52333 1-1124): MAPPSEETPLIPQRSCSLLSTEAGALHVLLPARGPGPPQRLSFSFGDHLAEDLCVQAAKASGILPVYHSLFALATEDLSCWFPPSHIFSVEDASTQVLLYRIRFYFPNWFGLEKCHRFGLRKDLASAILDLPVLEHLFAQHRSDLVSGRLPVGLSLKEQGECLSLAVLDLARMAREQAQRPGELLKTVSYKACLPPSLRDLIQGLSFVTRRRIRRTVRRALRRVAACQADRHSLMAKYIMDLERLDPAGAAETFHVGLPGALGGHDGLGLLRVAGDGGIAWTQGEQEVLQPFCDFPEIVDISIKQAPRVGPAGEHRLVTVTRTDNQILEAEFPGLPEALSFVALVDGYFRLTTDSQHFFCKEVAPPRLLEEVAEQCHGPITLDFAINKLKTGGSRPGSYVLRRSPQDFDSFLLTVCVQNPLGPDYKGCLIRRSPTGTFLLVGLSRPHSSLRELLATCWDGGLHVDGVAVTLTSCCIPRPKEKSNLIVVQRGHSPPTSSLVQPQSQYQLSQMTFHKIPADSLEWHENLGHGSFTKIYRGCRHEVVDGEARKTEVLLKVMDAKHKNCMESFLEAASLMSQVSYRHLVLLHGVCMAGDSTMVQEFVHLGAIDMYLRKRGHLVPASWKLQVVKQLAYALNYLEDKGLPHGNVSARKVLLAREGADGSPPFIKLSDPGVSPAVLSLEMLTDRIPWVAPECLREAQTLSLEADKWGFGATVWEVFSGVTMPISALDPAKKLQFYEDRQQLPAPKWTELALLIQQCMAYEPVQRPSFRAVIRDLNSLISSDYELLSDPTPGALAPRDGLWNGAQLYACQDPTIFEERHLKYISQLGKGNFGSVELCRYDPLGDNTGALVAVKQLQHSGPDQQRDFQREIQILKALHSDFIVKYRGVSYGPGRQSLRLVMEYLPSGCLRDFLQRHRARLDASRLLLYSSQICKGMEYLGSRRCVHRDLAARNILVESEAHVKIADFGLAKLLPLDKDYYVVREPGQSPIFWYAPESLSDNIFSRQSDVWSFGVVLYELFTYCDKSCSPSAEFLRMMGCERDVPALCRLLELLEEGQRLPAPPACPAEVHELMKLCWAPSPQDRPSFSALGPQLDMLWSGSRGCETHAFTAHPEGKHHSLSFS
In short: (§1)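 Peptide phosphorylation detected by proximity: streptavidin donor beads bind biotinylated substrate, acceptor beads carry antibody to phosphorylated substrate, singlet oxygen transfer gives emission. Dose-response over 8 points (1:3 steps); stocks 20 mM in DMSO.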

Flt1 = molecular target: T2, Flt1 (Homo sapiens, UniProt P17948); test: AlphaScreen kinase assay, Flt1; conditions: read-out: IC50, activity toward kinase Flt1
T2 construct: P1826.pETN6 BI-PTP FLT1 M799-D1165-X WT; His6 (N); made in house; host or cells: E. coli (PTP1B co-expressed)
T2 sequence (P17948 with tags, fused parts or gaps): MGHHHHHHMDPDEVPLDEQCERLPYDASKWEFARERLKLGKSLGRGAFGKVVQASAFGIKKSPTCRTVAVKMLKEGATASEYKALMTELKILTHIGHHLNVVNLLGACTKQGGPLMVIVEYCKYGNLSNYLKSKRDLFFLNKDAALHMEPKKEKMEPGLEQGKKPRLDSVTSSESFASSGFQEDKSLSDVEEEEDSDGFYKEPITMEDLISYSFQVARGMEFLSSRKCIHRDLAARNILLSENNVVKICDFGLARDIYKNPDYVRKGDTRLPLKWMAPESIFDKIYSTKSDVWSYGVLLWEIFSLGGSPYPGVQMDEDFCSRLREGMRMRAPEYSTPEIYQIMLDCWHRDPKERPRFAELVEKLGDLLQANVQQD

Jnk3 = molecular target: T3, Jnk3 (Homo sapiens, UniProt P53779); test: AlphaScreen kinase assay, Jnk3; conditions: read-out: IC50, activity toward kinase Jnk3
T3 construct: purchased Upstate Biotechnology

c-Raf-1 = molecular target: T4, c-Raf-1 (Homo sapiens, UniProt P04049); test: AlphaScreen kinase assay, c-Raf-1; conditions: read-out: IC50, activity toward kinase c-Raf-1
T4 construct: purchased Upstate Biotechnology

Fak = molecular target: T5, Fak (Homo sapiens, UniProt Q05397); test: AlphaScreen kinase assay, Fak; conditions: read-out: IC50, activity toward kinase Fak
T5 construct: P1358.pFastBacHtb FAK S411-Q686-X; His6 with pFastBacHTb leader (TEV site) (N); made in house; host or cells: Sf9 (baculovirus)

Met = molecular target: T6, Met (Homo sapiens, UniProt P08581); test: AlphaScreen kinase assay, Met; conditions: read-out: IC50, activity toward kinase Met
T6 construct: P1818.pETN6 BI-PTP MET G1056-G1364-X WT; His6 (N); made in house; host or cells: E. coli (PTP1B co-expressed)
In short: as §1

Stk6 = molecular target: T7, Stk6 (Homo sapiens, UniProt O14965); test: Z'-Lyte FRET kinase assay (Invitrogen), Stk6; conditions: read-out: IC50, activity toward kinase Stk6
T7 construct: purchased Invitrogen (Carlsbad, Calif.), screening service
T7 sequence (O14965 1-403): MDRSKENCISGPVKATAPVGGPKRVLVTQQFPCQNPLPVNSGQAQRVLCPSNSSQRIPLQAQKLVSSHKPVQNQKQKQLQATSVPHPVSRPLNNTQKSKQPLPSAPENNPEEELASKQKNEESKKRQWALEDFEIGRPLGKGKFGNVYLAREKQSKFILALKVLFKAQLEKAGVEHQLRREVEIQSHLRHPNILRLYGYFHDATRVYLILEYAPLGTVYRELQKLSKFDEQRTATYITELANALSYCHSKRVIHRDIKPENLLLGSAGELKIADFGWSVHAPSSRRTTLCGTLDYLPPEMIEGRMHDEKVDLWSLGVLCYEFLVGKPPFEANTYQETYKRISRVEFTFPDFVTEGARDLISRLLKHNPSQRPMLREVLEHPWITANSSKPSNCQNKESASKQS

Src = molecular target: T8, Src (Homo sapiens, UniProt P12931); test: AlphaScreen kinase assay, Src; conditions: read-out: IC50, activity toward kinase Src
T8 construct: P1144. pET-N6 BI-PTP SRC V86-L536-X; made in house
Source text: AlphaScreen assay was used to screen additional kinases. The assay is similarly dependent on the phosphorylation of a peptide substrate. In this assay, an antibody that recognizes phosphorylated substrate is bound to an acceptor bead. The peptide substrate is attached to biotin, which binds to a donor head that contains streptavidin. Thus phosphorylated substrate is bound by antibody and streptavidin, bringing the donor and acceptor heads into close proximity when kinase is not inhibited. The donor produces singlet oxygen which results in emission from the acceptor when they are in close proximity. Conversely, when kinase is inhibited, the donor and acceptor beads are not associated and the emission from the acceptor is reduced.
AlphaScreen assays were done using compounds dissolved in DMSO to a concentration of 20 mM. The compounds were diluted accordingly to the desired final concentrations in each sample well, using 1:3 serial dilution for a total of 8 concentration points. Plates were prepared such that each kinase reaction is 20 μl in 1× kinase buffer, 5% DMSO and 10 μM ATP. After incubation of the kinase reaction for 1 hour at room temperature, 5 μl of donor beads in stop buffer (50 mM EDTA in 1× kinase buffer) was added, the sample was mixed and incubated for 20 minutes at room temperature before adding 5 μl of acceptor beads in stop buffer. The samples were incubated for 60 minutes at room temperature and the signal per well was read on AlphaQuest reader.

Measured: IC50

T8 sequence (P12931 with tags, fused parts or gaps): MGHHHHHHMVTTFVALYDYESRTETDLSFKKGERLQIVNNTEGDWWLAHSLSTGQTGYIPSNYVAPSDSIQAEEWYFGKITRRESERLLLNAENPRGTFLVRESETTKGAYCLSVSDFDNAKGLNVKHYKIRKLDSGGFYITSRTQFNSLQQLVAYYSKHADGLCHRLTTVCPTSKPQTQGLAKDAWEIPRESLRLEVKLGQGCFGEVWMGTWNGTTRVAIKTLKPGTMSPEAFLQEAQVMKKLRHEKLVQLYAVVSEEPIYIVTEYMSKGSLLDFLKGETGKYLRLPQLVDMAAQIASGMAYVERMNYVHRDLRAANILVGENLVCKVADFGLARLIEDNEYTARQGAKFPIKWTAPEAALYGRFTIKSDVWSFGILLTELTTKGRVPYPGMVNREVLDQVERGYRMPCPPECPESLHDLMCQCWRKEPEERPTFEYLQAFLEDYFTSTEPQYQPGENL
T5 sequence (Q05397 411-686): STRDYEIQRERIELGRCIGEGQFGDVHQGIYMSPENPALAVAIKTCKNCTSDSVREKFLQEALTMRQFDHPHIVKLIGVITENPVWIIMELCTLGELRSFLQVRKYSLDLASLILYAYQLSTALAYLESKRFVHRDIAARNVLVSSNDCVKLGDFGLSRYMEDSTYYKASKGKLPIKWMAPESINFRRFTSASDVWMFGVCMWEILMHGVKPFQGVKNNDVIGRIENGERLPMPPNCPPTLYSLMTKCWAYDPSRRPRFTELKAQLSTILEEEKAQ
T3 sequence (P53779 whole entry): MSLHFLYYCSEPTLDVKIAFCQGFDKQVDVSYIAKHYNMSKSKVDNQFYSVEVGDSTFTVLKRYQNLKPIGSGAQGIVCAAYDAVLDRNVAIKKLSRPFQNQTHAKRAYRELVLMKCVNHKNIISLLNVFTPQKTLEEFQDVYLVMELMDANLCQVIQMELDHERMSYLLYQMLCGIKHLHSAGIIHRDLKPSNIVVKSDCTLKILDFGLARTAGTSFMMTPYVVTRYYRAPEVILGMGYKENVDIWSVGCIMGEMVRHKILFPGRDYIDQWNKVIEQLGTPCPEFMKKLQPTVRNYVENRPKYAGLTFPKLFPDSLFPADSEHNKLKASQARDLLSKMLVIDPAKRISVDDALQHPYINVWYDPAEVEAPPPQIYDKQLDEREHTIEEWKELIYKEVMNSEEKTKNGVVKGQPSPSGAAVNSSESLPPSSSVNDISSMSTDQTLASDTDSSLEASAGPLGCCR
T4 sequence (P04049 whole entry): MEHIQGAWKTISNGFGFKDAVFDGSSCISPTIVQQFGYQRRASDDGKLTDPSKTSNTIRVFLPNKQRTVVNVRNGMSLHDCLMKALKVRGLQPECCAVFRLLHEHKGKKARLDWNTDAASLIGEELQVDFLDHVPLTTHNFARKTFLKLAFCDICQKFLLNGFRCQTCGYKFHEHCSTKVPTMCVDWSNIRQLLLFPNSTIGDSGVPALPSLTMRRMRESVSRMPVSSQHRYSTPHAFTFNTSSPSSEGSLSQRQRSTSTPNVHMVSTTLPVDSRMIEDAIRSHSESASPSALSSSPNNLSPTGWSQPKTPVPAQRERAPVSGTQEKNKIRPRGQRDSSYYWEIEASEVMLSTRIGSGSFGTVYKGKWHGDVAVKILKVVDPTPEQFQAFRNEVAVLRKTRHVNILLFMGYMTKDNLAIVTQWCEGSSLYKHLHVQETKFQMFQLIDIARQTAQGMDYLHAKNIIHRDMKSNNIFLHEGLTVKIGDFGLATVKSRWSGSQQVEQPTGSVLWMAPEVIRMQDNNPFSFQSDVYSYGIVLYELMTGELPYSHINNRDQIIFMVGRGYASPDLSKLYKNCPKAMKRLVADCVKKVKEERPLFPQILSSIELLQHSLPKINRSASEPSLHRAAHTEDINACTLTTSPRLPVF
T6 sequence (P08581 with tags, fused parts or gaps): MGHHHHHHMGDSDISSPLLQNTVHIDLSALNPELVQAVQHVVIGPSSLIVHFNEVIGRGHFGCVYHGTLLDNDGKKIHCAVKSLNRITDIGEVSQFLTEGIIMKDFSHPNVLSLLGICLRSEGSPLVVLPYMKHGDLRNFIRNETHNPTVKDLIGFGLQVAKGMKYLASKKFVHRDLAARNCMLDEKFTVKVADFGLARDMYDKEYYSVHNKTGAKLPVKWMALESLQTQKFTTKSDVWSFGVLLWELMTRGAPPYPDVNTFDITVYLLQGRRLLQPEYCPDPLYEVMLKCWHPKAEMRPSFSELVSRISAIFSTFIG

O=C(c1ccc(O)cc1)c1c[nH]c2ncc(-c3cccs3)cc12 [Compound P-0024, (4-Hydroxy-phenyl)-(5-thiophen-2-yl-1H-pyrrolo[2,3-b]pyridin-3-yl)-methanone]
≤ 10 µM: Jak3 | Flt1 | Jnk3 | c-Raf-1 | Fak

CS(=O)(=O)c1cccc(-c2cnc3[nH]cc(C(O)c4c(F)ccc(F)c4F)c3c2)c1 (centres unmarked) [Compound P-0020]
≤ 10 µM: Jak3 | Flt1 | Met | Stk6

Oc1ccc(F)c(Cc2c[nH]c3ncc(Br)cc23)c1F [Compound P-0122, 3-(5-Bromo-1H-pyrrolo[2,3-b]pyridin-3-ylmethyl)-2,4-difluoro-phenol]
≤ 10 µM: Jak3 | Jnk3 | c-Raf-1

Fc1cc(F)cc(-c2ccnc3[nH]cc(Sc4ccccn4)c23)c1 [Compound P-0106]
≤ 10 µM: Jak3 | Stk6

Cc1ccc(F)cc1C(=O)c1c[nH]c2nccc(-c3cccc(NS(C)(=O)=O)c3)c12 [Compound P-0124]
≤ 10 µM: Jak3

Cc1ccccc1C(=O)c1c[nH]c2nccc(-c3cccc(N)c3)c12 [Compound P-0044]
≤ 10 µM: Jak3 | Stk6

Nc1cccc(-c2ccnc3[nH]cc(C(=O)c4ccccc4F)c23)c1 [Compound P-0022]
≤ 10 µM: Jak3 | Stk6

CS(=O)(=O)Nc1cccc(-c2ccnc3[nH]cc(C(=O)c4cc(F)ccc4F)c23)c1 [Compound P-0060]
≤ 10 µM: Jak3 | Stk6

Cc1ccccc1C(=O)c1c[nH]c2nccc(-c3cccc(NS(C)(=O)=O)c3)c12 [Compound P-0109]
≤ 10 µM: Jak3

Nc1cccc(-c2cnc3[nH]cc(C(=O)c4cccc(O)c4)c3c2)c1 [Compound P-0003]
not listed: c-Raf-1 | Met
≤ 10 µM: all other assays above

O=C(c1cc(F)ccc1F)c1c[nH]c2nccc(-c3cccnc3)c12 [Compound P-0063]
≤ 10 µM: Jak3 | Stk6

O=C(c1cccc(O)c1)c1c[nH]c2ncc(Br)cc12 [Compound P-0019]
≤ 10 µM: Jak3 | Flt1

O=C(c1cccc(O)c1F)c1c[nH]c2ncc(-c3cccs3)cc12 [Compound P-0521, (2-fluoro-3-hydroxy-phenyl)-(5-thiophen-2-yl-1H-pyrrolo[2,3-b]pyridin-3-yl)-methanone]
≤ 10 µM: Jak3 | Src | Flt1 | Jnk3 | c-Raf-1

O=C(c1ccccc1F)c1c[nH]c2nccc(-c3ccsc3)c12 [Compound P-0051]
≤ 10 µM: Jak3 | Stk6

NC(=O)c1cccc(-c2ccnc3[nH]cc(C(=O)c4cc(F)ccc4F)c23)c1 [Compound P-0049]
≤ 10 µM: Jak3 | Stk6

NC(=O)c1cccc(-c2cnc3[nH]cc(C(=O)c4cccc(O)c4F)c3c2)c1 [Compound P-0034, 3-[3-(2-Fluoro-3-hydroxy-benzoyl)-1H-pyrrolo[2,3-b]pyridin-5-yl]benzamide]
not listed: Stk6
≤ 10 µM: all other assays above

NC(=O)c1ccc(-c2ccnc3[nH]cc(C(=O)c4cc(F)ccc4F)c23)cc1 [Compound P-0013]
≤ 10 µM: Jak3 | Flt1 | Stk6

Nc1cccc(-c2ccnc3[nH]cc(C(=O)c4cc(F)ccc4F)c23)c1 [Compound P-0046]
≤ 10 µM: Jak3 | Stk6

Nc1cccc(-c2cnc3[nH]cc(C(=O)c4cccc(O)c4F)c3c2)c1 [Compound P-0004, [5-(3-amino-phenyl)-1H-pyrrolo[2,3-b]pyridin-3-yl]-(2-fluoro-3-hydroxy-phenyl)methanone]
not listed: Stk6
≤ 10 µM: all other assays above

CC(=O)Nc1cccc(-c2ccnc3[nH]cc(C(=O)c4ccccc4F)c23)c1 [Compound P-0070]
≤ 10 µM: Jak3 | Stk6

OC(c1c(F)ccc(F)c1F)c1c[nH]c2ncc(-c3cccnc3)cc12 (centres unmarked) [Compound P-0101]
≤ 10 µM: Jak3 | Flt1 | Met | Stk6

O=C(c1cccc(O)c1)c1c[nH]c2nccc(-c3cc(F)cc(F)c3)c12 [Compound P-0039]
≤ 10 µM: Jak3 | Flt1

CS(=O)(=O)c1cccc(-c2ccnc3[nH]cc(C(=O)c4cc(F)ccc4F)c23)c1 [Compound P-0171]
≤ 10 µM: Jak3 | Src

Oc1ccc(F)c(C(O)c2c[nH]c3ncc(-c4cccnc4)cc23)c1F (centres unmarked) [Compound P-0009, 2,4-difluoro-3-[hydroxy-(5-pyridin-3-yl-1H-pyrrolo[2,3-b]pyridin-3-yl)-methyl]-phenol]
≤ 10 µM: all assays above

NC(=O)c1ccc(-c2ccnc3[nH]cc(C(=O)c4ccccc4F)c23)cc1 [Compound P-0014]
≤ 10 µM: Jak3 | Stk6
